Series [1] concerns mice. The experiment in a line: Spatial reference memory task in the water maze. The format is in vivo. As to conditions: for effect on swim speed: FIG. 1D, water maze, s.c. pellets 25 nmol/day for 35 days; for performance in the learning of spatial memory task in water maze: FIG. 1G, p<0.001, two-way ANOVA, s.c. pellets 25 nmol/day. As to the method:
(§1) All in vivo studies for characterization of peptides (stereology and behavioral analysis) were performed on 8-10-month-old female retired breeders of C57BI6 background. Animals were acclimatized for at least 3 weeks to exclude occasional pregnant mice from the studies. Mice were group-housed (3 animals per cage) with a 12:12 hours light/dark cycle and with free access to food and water. All procedures were conducted in accordance with approved protocols from our institutional Animal Welfare Committee. For the peptide treatment, mice (8 animals/group) received subcutaneous implants of long term continuous release depot pellets containing Peptide021 or Peptide022 at 25 nmol/day for 35 days of continuous dosing (Innovative Research of America, Sarasota, Fla.). For the control group (8 animals), pellets consisted of the carrier polymer only. Mice were anesthetized with 2.5% Avertin (0.38 ml for a 25 g animal). Under sterile conditions, pellets were implanted subcutaneously along the anterolateral aspect of the right shoulder with a precision trochar (Innovative Research of America, Sarasota, Fla.). After recovery of anesthesia, animals were transferred to the animal colony. […] To investigate neurogenesis, BrdU (Sigma, St. Louis, Mo.) was given as two daily i.p. injections (100 mg/kg/dose) for five days starting on day 2 of peptides treatment.
Spatial reference learning and memory were evaluated in the water maze using a procedure adapted from that previously described by Morris et al. (1982). The test required that mice used a spatial navigational strategy based on a spatial representation of the environment to find a fixed submerged escape platform. The procedure was performed in a 180 cm diameter circular tank. The pool was filled with water (21±1)° C. made opaque by adding white non-toxic paint. Acquisition started with the escape platform (15 cm diameter submerged 1 cm below water surface) in the Northwest quadrant and each animal was given 90 s to find the platform. […] At the end of each trial, the mouse was left on the platform for 20 s, then dried and returned to its home cage until the next trial. Five such acquisition trials were given on each day for four consecutive days. A test for retention, or probe trial (PT), was given 24 hours later. During the probe trial the mouse was allowed to swim in the tank without the escape platform for 60 seconds. This was followed by second and third probe trials 15 and 30 days after the first probe trial. The measures of learning were the time and distance covered to reach the escape platform. For the probe trial, the tank was divided into four imaginary quadrants and a small zone where the escape platform had been. The measures of retention were calculated index as the ratio of time spent or distance covered in target quadrant over them in the three other quadrants. Mouse behavior in the water maze was monitored by a Samsung Digital Camera (SDC 4304) mounted to the ceiling and tracked and timed by a SMART (Pan Lab/San Diego Instruments) version 2.0.14 software. Immunohistochemistry

Series [2] is described as follows: General examination: body weight and physical state during peptide treatment. The conditions noted are these: s.c. depot pellets 25 nmol/day for 35 days; for effect on body weight: FIG. 1A, female C57BI6 mice. It counts as in vivo, mice. As for the experimental part: as §1
The physical state and condition of animals were carefully monitored throughout the treatment by evaluating grooming, physical state and clasping reflex. Body weight was also recorded.

In series [3] the test system is mice. The series can be described thus: Open field familiarization session (locomotor/exploratory activity and anxiety). The format is in vivo. The conditions noted are these: for anxiety level of mice: FIG. 1B, time in centre of arena, first 5 minutes, s.c. pellets 25 nmol/day; for effect on exploratory activity: FIG. 1C, open field, s.c. pellets 25 nmol/day for 35 days. As to the method: as §1
In the one-trial object recognition task, animals are exposed to two different objects which they have to identify as novel or familiar based on the memory of an earlier experience with one of the two objects they encountered in the same open field. The familiar object is explored shorter than the novel encountered one because the representation of the former is still available in memory. The one-trial object recognition task tests some aspects of episodic memory but is limited to memory of an object (what), the location of an object (where), and the context in which is was encountered (which). However, the temporal dimension of the episode remains inaccessible to the experimentator, and because of this reason this task in animals is considered a test of short term memory (Ennaceur, 2010). The test used was an adaptation of the procedure previously described by Sargolini and collaborators (2003). The testing apparatus was a classic open field (i.e. a PVC square arena, 50×50 cm, with walls 40 cm high). The open field was placed in a part of the room separated from the experimentator with a black opaque curtain. The open field was surmounted by a video camera connected to a computer. Three objects were employed in this task. The general procedure consisted of three different phases: a familiarization phase (one session of 20 min), a sample phase, and a test phase. […] Object discrimination (OD) during the test phase was evaluated as […]

The next series relates to synapsin I. The experiment in a line: Expression of synapsin I in DG (immunohistochemistry, mean optical density). The format is in vivo, mice. As to conditions: FIG. 3B; p<0.001; s.c. pellets 25 nmol/day. As to the method:
(§2) All in vivo studies for characterization of peptides (stereology and behavioral analysis) were performed on 8-10-month-old female retired breeders of C57BI6 background. Animals were acclimatized for at least 3 weeks to exclude occasional pregnant mice from the studies. Mice were group-housed (3 animals per cage) with a 12:12 hours light/dark cycle and with free access to food and water. All procedures were conducted in accordance with approved protocols from our institutional Animal Welfare Committee. […]
(§3) At the end of the behavioral experiment, animals were anesthetized with an overdose of sodium pentobarbital (50 mg/kg) and transcardially perfused with 0.1 M phosphate buffered saline (PBS). […] Neurogenesis in the dentate gyrus was evaluated by counting the number of BrdU-positive and BrdU/NeuN-double-positive cells in the dentate gyrus (DG). The number of positive cells was determined in every fifth section in a series of 40 μm sagittal sections throughout the DG using unbiased sterology (West et al., 1991). All BrdU-positive cells in the subgranular zone (SGZ) and granule cell layer (GCL) were counted using a fluorescent microscope (Nikon Eclipse 90i, Nikon Corporation, Japan). Double labeled cells were assessed by a confocal imaging system (D-Eclipse C1, Nikon Corporation). […] For each brain, at least 100 cells were counted based on coefficient of error determinations. […]

The subject of series [4] is LIF-induced STAT3 phosphorylation at Tyr705. The experiment in a line: Analysis of STAT3 phosphorylation in HepG2 cells. It counts as cell-based, human. The conditions noted are these: FIG. 4, different peptide concentrations with 0.25 nM LIF for 15 min, Western blot. As to the method: To investigate the molecular mechanism of action of Peptide021 in LIF signaling, HepG2 human hepatoma cell (ATCC, Manassas, Va.) at 80% confluence were treated with different concentrations of Peptide021 and with 0.25 nM LIF (Chemicon International Inc., Temecula, Calif.) for 15 min. The cells were lysed and subjected to Western blots developed with antibodies anti-phospho-Tyr 705 STAT3 and anti-STAT3 (Cell signaling Technology, Danvers, Mass.).
HepG2 cells were treated with different concentrations of Peptide 021 together with 0.25 nM LIF for 15 min, and then the STAT3 phosphorylation at Tyr705 (pY-STAT3) was determined by Western blots. The pY-STAT3 value was normalized to total STAT3 expression. Data are presented as percentages of the value from cells treated with 0.25 nM LIF alone (100%). *p<0.01.
In general terms: Immunoblotting shows a protein as a band on a membrane.

Series [5] relates to mice. The experiment in a line: One-trial object recognition test. The format is in vivo. The conditions noted are these: FIG. 1E-F; p<0.05, Student t-test; s.c. pellets 25 nmol/day. As to the method:
All in vivo studies for characterization of peptides (stereology and behavioral analysis) were performed on 8-10-month-old female retired breeders of C57BI6 background. Animals were acclimatized for at least 3 weeks to exclude occasional pregnant mice from the studies. Mice were group-housed (3 animals per cage) with a 12:12 hours light/dark cycle and with free access to food and water. All procedures were conducted in accordance with approved protocols from our institutional Animal Welfare Committee. For the peptide treatment, mice (8 animals/group) received subcutaneous implants of long term continuous release depot pellets containing Peptide021 or Peptide022 at 25 nmol/day for 35 days of continuous dosing (Innovative Research of America, Sarasota, Fla.). For the control group (8 animals), pellets consisted of the carrier polymer only. Mice were anesthetized with 2.5% Avertin (0.38 ml for a 25 g animal). […]
In the one-trial object recognition task, animals are exposed to two different objects which they have to identify as novel or familiar based on the memory of an earlier experience with one of the two objects they encountered in the same open field. […] Object discrimination (OD) during the test phase was evaluated as […]

Series [6] has as its system BrdU-positive and BrdU/NeuN-double-positive cells in the dentate gyrus. The series can be described thus: Neurogenesis in the dentate gyrus (BrdU / NeuN immunohistochemistry, unbiased stereology). It counts as in vivo, mice. The conditions noted are these: p<0.05, s.c. pellets 25 nmol/day. As for the experimental part:
as §1
At the end of the behavioral experiment, animals were anesthetized with an overdose of sodium pentobarbital (50 mg/kg) and transcardially perfused with 0.1 M phosphate buffered saline (PBS). After perfusion, the brains were removed from the skull, the left hemisphere was immediately frozen for future biochemical analysis and the right hemisphere was immersion fixed in 4% paraformaldehyde in 0.1 M PBS for at least 24 hours at room temperature. Tissues were equilibrated and stored in 30% sucrose solution at 4° C. until sectioning. The brains were sectioned sagittaly on a freezing sliding microtome at 40 μm through the entire hippocampus and the sections were stored in glycol anti-freeze solution (Ethylene glycol, glycerol and 0.1 M PBS in 3:3:4 ratio) at −20° C. until further processing. For double labeling of BrdU and NeuN, brain sections were pretreated with 2 M HCl at 37° C. for 30 min and neutralized with 0.1 M borate buffer (pH 8.5) for 10 minutes. Tissue sections were incubated first for 30 min with blocking buffer (4% normal goat serum +0.1% Tween-20 in PBS) and then overnight at 4° C. in the presence of BrdU (Millipore Corporation, Billerica, Mass.) and NeuN (Millipore Corporation) antibodies diluted 1:400 and 1:100, respectively. […] Neurogenesis in the dentate gyrus was evaluated by counting the number of BrdU-positive and BrdU/NeuN-double-positive cells in the dentate gyrus (DG). The number of positive cells was determined in every fifth section in a series of 40 μm sagittal sections throughout the DG using unbiased sterology (West et al., 1991). All BrdU-positive cells in the subgranular zone (SGZ) and granule cell layer (GCL) were counted using a fluorescent microscope (Nikon Eclipse 90i, Nikon Corporation, Japan). Double labeled cells were assessed by a confocal imaging system (D-Eclipse C1, Nikon Corporation). […] For each brain, at least 100 cells were counted based on coefficient of error determinations. […]

A further series has as its system synaptophysin. The series can be described thus: Expression of synaptophysin in DG (immunohistochemistry, mean optical density). As to conditions: FIG. 3A; p<0.001; s.c. pellets 25 nmol/day. It counts as in vivo, mice. As to the method:
as §2, §3

Residues, ends and D or L forms follow the SMILES beside them.

Turning to `CC(C)C[C@H](NC(=O)CNC(=O)CNC(=O)[C@H](CC(=O)O)NC(=O)C12CC3CC(CC(C3)C1)C2)C(=O)NC12CC3CC(C1)CC(C(N)=O)(C3)C2` [Peptide 022, 1-AdCO-DGGL^AG-NH2] (HELM PEPTIDE1{[O=C(C12CC3CC(CC(C3)C1)C2)[*:2]].D.G.G.L.[NC(=O)C12CC3CC(CC(N[*:1])(C3)C1)C2]}$$$$V2.0), in the series on mice [1], the “effect on swim speed” value is listed as “did not induce any effect” and the “performance in the learning of spatial memory task in water maze” value was “increased performance”. In series [2], the “effect on body weight” value is listed as “did not induce any effect”; the “complications associated with the implantation and treatment” value is given as “No complications”. Also, in the series with mice [3], the “anxiety level of mice” value is given as “reduced” and the “effect on exploratory activity” value was “did not induce any effect”.
For `CC(=O)N[C@@H](CC(=O)O)C(=O)NCC(=O)NCC(=O)N[C@@H](CC(C)C)C(=O)N[C@]12CC3CC(C1)C[C@@](C(N)=O)(C3)C2` [Peptide 021, Ac-Asp-Gly-Gly-Leu-^AGly-NH2] (HELM PEPTIDE1{[ac].D.G.G.L.[NC(=O)[C@]12CC3CC(C[C@](N[*:1])(C3)C1)C2]}$$$$V2.0), the “expression of synapsin I in the DG” value in the series on synapsin I was “significantly promoted”. Moreover, in the series on mice [1], the “effect on swim speed” value was “did not induce any effect” and the “performance in the learning of spatial memory task in water maze” value is on record as “increased performance”. In the series with mice [1] (FIG. 1H, after 15 days of the end of treatment), the “effect in second probe trial (PT2)” value is recorded as “no longer effect”. Further, in the series with mice [1] (FIG. 1H, after 30 days of the end of treatment), the “effect in third probe trial (PT3)” value is listed as “no longer effect”. Besides, the “performances in the first probe trial” value in the series on mice [1] (FIG. 1H, probe trial 24 hours after acquisition, p<0.05) is reported as “improved performances”. In addition, in series [4], the “LIF-induced STAT3 phosphorylation (pY-STAT3 normalized to total STAT3)” value is reported as “Inhibition”. Further, the “ability to discriminate a new object versus a familiar object” value with mice [5] was “significantly improved”. In series [6] (FIG. 2B), the “numbers of BrdU positive cells in the GCL” value was “significantly increased”, the “numbers of BrdU positive cells in the SGZ” value is “significantly increased” and the “numbers of BrdU positive cells in the total DG” value is given as “significantly increased”. Moreover, in series [6] (FIG. 2C), the “number of BrdU/NeuN positive cells in the GCL” value was “significantly increased” and the “number of BrdU/NeuN positive cells in the total DG” value was “significantly increased”. In series [2], the “effect on body weight” value was “did not induce any effect”; the “complications associated with the implantation and treatment” value is “No complications”. Further, the “expression of synaptophysin in the DG” value in the series with synaptophysin is recorded as “significantly promoted”. For the same molecule, in the series on mice [3], the “anxiety level of mice” value is on record as “reduced” and the “effect on exploratory activity” value is recorded as “did not induce any effect”.

Source of the values: US20130165625A1, “PEPTIDES INCORPORATING 3-AMINOADAMANTANE CARBOXYLIC ACIDS ENHANCE SYNAPTIC PLASTICITY AND ACT AS NEUROGENIC AGENTS” (JUSTUS-LIEBIG-UNIVERSITAT GIESSEN, priority 2010, published 2013).
